Where “and” joins values, the source holds several entries; their conditions need not be identical. Equal entries are not always repeated. Where two headings read alike, the source gives them in different places.
Legend:
[1] = system: IL-6 production, LPS stimulated RAW264.7 cells; assay: IL-6 levels (ELISA) in supernatants of LPS stimulated RAW264.7 cells; format: cell-based, mouse
Method: Raw264.7 cells (leukemia transformed monocytic-macrophage cell line derived from mouse ascitic fluid) were grown in Dulbecco's Modified Eagle's Medium enriched with glutamine and fetal calf serum and maintained at 37° C. and 5% CO2.
Two experimental parts were performed.

[2] = Case report rheumatoid arthritis; format: in vivo, human; settings: person, 10 mg prednisone retard tablets once daily
Source text: A person was diagnosed with rheumatoid arthritis a few months after experiencing first symptoms.

[3] = Body weight in pilot study of collagen induced arthritis (CIA) in mice; settings: MP1032 1 mg/kg/day alone, intraperitoneally
[4] = Schumann et al. 2020; cited from earlier work

C[C@@H]1C[C@H]2[C@@H]3CCC4=CC(=O)C=C[C@]4(C)[C@@]3(F)[C@@H](O)C[C@]2(C)[C@@]1(O)C(=O)CO [Dexamethasone, dexamethasone, reference compound]
Percentage inhibition of IL-6 production ([1]; Exp Part 1, dexamethasone 0.01 μM alone): 34.66% | inhibition at 0.01 µM ([1]; Mus musculus, RAW264.7, Exp Part 1, dexamethasone 0.01 μM alone, read-out: Percentage inhibition of IL-6 production): 34.7% | inhibition at 0.1 µM ([1]; Mus musculus, RAW264.7, Exp Part 1, dexamethasone 0.1 μM alone, read-out: Percentage inhibition of IL-6 production): 63.8% | inhibition at 1 µM ([1]; Mus musculus, RAW264.7, Exp Part 1, dexamethasone 1 μM alone, read-out: Percentage inhibition of IL-6 production): 87% | inhibition at 0.0003 µM ([1]; Mus musculus, RAW264.7, Exp Part 2, dexamethasone 0.0003 μM alone, read-out: Percentage inhibition of IL-6 production): 1.57% | inhibition at 0.0006 µM ([1]; Mus musculus, RAW264.7, Exp Part 2, dexamethasone 0.0006 μM alone, read-out: Percentage inhibition of IL-6 production): 4.07% | inhibition at 0.0012 µM ([1]; Mus musculus, RAW264.7, Exp Part 2, dexamethasone 0.0012 μM alone, read-out: Percentage inhibition of IL-6 production): 0% | inhibition at 0.0025 µM ([1]; Mus musculus, RAW264.7, Exp Part 2, dexamethasone 0.0025 μM alone, read-out: Percentage inhibition of IL-6 production): 4.16% | inhibition at 0.005 µM ([1]; Mus musculus, RAW264.7, Exp Part 2, dexamethasone 0.005 μM alone, read-out: Percentage inhibition of IL-6 production): 30.6% | inhibition at 0.01 µM ([1]; Mus musculus, RAW264.7, Exp Part 2, dexamethasone 0.01 μM alone, read-out: Percentage inhibition of IL-6 production): 36.3%

C[C@]12C=CC(=O)C=C1CC[C@@H]1[C@@H]2C(=O)C[C@@]2(C)[C@H]1CC[C@]2(O)C(=O)CO [prednisone]
pain and inflammation ([2]; rheumatoid arthritis, within months): improved | body weight [2]: started to gain weight

Nc1cccc2c(=O)[nH][nH]c(=O)c12.[Na]
Body weight on day 45, median [3]: (23.6, n = 11) g | Percentage inhibition of IL-6 production ([1]; Exp Part 1, MP1032 0.025 mM alone, sodium salt): 17% and 17.03% | Percentage inhibition of IL-6 production ([1]; Exp Part 1, MP1032 0.05 mM alone, sodium salt): 25.8% and 25.77% | Percentage inhibition of IL-6 production ([1]; Exp Part 1, MP1032 0.1 mM alone): 44.85% | Percentage inhibition of IL-6 production ([1]; Exp Part 1, MP1032 0.25 mM alone): 53.95% | Percentage inhibition of IL-6 production ([1]; Exp Part 1, MP1032 0.5 mM alone): 56.70% | Percentage inhibition of IL-6 production ([1]; Exp Part 1, MP1032 1 mM alone): 72.75% | Percentage inhibition of IL-6 production ([1]; Exp Part 2, MP1032 0.025 mM alone): 1.57% | Percentage inhibition of IL-6 production ([1]; Exp Part 2, MP1032 0.05 mM alone): 0% | Percentage inhibition of IL-6 production ([1]; Exp Part 2, MP1032 0.1 mM alone): 0% | Percentage inhibition of IL-6 production ([1]; Exp Part 2, MP1032 0.25 mM alone): 13.85% | Percentage inhibition of IL-6 production ([1]; Exp Part 2, MP1032 0.5 mM alone): 47.52% | Percentage inhibition of IL-6 production ([1]; Exp Part 2, MP1032 1 mM alone): 67.30%

Nc1cccc2c(=O)[nH][nH]c(=O)c12
tolerability [4]: well tolerated

Source: US20230241060A1, “GLUCOCORTICOID-SPARING AGENT” (METRIOPHARM AG, priority 2020, published 2023)
